What was measured:
[1] = tested on: RARγ -VP-16; assay: Retinoid inverse agonist assay: inhibition of basal luciferase activity of RARγ-VP-16 chimeric receptor in cotransfected CV-1 cells; assay type: cell-based; conditions: CV-1 cells cotransfected with RARγ -VP-16, ER-RXRα chimeric receptor and ERE-tk-Luc reporter
Text: Inverse agonists are ligands that are capable of inhibiting the basal receptor activity of unliganded receptors. […] Moreover, the biological effects associated with retinoid inverse agonists are distinct from those of retinoid agonists or antagonists. For example, RAR inverse agonists, but not RAR neutral antagonists, cause a dose-dependent inhibition of the protein MRP-8 in cultured human keratinocytes differentiated with serum. MRP-8 is a specific marker of cell differentiation, which is also highly expressed in psoriatic epidermis, but is not detectable in normal human skin. Thus, retinoid inverse agonists may offer a unique way of treating diseases such as psoriasis.
The activity of retinoid inverse agonists can be tested by the procedure of Klein et al. J. Biol. Chem. 271, 22692-22696 (1996) which is expressly incorporated herein by reference.
In this assay, retinoid inverse agonists are able to repress the basal activity of a […] -VP-16 chimeric receptor where the constituitively active domain of the herpes simplex virus (HSV) VP-16 is fused to the N-terminus of RARγ. […] Retinoid inverse agonists are able to inhibit the basal luciferase activity in these cells in a dose dependent manner and IC50 s measured.

[2] = molecular target: T1, RARα (Homo sapiens, UniProt P10276); assay: Ligand binding assay, RARα
T1 sequence (P10276 1-462): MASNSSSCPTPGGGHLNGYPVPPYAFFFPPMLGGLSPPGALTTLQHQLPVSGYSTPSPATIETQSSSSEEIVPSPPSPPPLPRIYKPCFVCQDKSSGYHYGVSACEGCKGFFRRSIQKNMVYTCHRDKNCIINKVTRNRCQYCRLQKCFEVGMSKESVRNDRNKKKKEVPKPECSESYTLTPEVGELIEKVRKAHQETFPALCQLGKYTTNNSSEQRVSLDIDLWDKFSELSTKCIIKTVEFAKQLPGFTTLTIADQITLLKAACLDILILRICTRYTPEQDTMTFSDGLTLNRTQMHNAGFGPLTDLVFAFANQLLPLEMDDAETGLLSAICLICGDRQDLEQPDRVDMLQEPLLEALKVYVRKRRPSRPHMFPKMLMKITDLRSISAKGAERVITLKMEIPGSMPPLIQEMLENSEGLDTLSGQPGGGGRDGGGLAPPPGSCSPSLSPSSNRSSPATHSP
Text: (§1) Other assays described below, measure the ability of the compounds of the present invention to bind to, and/or activate various retinoid receptor subtypes. When in these assays a compound binds to a given receptor subtype and activates the transcription of a reporter gene through that subtype, then the compound is considered an agonist of that receptor subtype. […] In the below described assays the ability of the compounds to bind to RARα, RARβ, RARγ, RXRα, RXRβ and RXRγ receptors, and the ability or inability of the compounds to activate transcription of a reporter gene through these receptor subtypes can be tested.
(§2) A holoreceptor transactivation assay and a ligand binding assay which measure the antagonist/agonist like activity of the compounds of the invention, or their ability to bind to the several retinoid receptor subtypes, respectively, are described in published PCT Application No. WO WO93/11755 (particularly on pages 30-33 and 37-41) published on Jun. 24, 1993, the specification of which is also incorporated herein by reference. A description of the holoreceptor transactivation assay is also provided below.
(§3) CV1 cells (5,000 cells/well) were transfected with an RAR reporter plasmid MTV-TREp-LUC (50 ng) along with one of the RAR expression vectors (10 ng) in an automated 96-well format by the calcium phosphate procedure of Heyman et al. Cell 68, 397-406, (1992). For RXRα and RXRγ transactivation assays, an RXR-responsive reporter plasmid CRBPII-tk-LUC (50 ng) along with the appropriate RXR expression vectors (10 ng) was used substantially as described by Heyman et al. above, and Allegretto et al. J. Biol. Chem. 268, 26625-26633. For RXRβ transactivation assays, an RXR-responsive reporter plasmid CPRE-tk-LUC ([…]) along with RXRβ expression vector ([…]) was used as described in above. These reporters contain DRI elements from human CRBPII and certain DRI elements from promoter, respectively. (see Mangelsdorf et al. The Retinoids: Biology, Chemistry and Medicine, pp 319-349, Raven Press Ltd., New York and Heyman et al., cited above) (1, 8). A β-galactosidase (50 ng) expression vector was used as an internal control in the transfections to normalize for variations in transfection efficiency. The cells were transfected in triplicate for 6 hours, followed by incubation with retinoids for 36 hours, and the extracts were assayed for luciferase and β-galactosidase activities. The detailed experimental procedure for holoreceptor transactivations has been described in Heyman et al. and Allegretto et al., cited above. The results obtained in this assay are expressed in EC50 numbers, as they are also in the chimeric receptor transactivation assay. The Heyman et al. Cell 68, 397-406, Allegretto et al. J. Biol. Chem. 268, 26625-26633, and Mangelsdorf et al. The Retinoids: Biology, Chemistry and Medicine, pp 319-349, Raven Press Ltd., New York, are expressly incorporated herein by reference. The results of ligand binding assay are expressed in Kd numbers. (See Cheng et al. Biochemical Pharmacology Vol. 22 pp 3099-3108, expressly incorporated herein by reference.)

[3] = molecular target: T2, RARβ (Homo sapiens, UniProt P10826); assay: Ligand binding assay, RARβ
T2 sequence (P10826 1-455): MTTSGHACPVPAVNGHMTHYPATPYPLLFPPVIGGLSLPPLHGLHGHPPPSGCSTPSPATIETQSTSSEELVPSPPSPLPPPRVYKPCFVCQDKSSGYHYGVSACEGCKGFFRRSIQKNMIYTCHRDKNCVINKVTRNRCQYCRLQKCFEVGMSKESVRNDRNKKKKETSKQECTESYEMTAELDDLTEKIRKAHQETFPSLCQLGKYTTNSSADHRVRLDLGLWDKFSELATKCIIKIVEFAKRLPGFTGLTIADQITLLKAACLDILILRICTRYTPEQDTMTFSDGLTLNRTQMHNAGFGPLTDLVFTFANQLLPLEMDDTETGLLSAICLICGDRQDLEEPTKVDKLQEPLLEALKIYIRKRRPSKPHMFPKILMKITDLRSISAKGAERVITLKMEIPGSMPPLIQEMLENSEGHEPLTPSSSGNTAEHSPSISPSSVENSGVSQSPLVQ
Text: as §1, §2, §3

[4] = molecular target: T3, RARγ (Homo sapiens, UniProt P13631); assay: Ligand binding assay, RARγ
T3 sequence (P13631 1-454): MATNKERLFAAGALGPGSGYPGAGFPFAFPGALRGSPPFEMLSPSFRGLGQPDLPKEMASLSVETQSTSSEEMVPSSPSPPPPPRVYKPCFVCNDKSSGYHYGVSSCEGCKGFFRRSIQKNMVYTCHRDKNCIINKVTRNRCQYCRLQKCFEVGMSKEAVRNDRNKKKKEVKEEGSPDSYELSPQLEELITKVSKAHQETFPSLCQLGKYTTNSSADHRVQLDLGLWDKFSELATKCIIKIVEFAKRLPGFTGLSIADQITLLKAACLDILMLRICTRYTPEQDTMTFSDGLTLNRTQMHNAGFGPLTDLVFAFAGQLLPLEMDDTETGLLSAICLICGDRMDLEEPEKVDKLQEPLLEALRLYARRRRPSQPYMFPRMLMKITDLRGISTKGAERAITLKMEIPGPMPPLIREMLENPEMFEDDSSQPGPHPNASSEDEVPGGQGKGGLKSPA
Text: Other assays described below, measure the ability of the compounds of the present invention to bind to, and/or activate various retinoid receptor subtypes. When in these assays a compound binds to a given receptor subtype and activates the transcription of a reporter gene through that subtype, then the compound is considered an agonist of that receptor subtype. […] In the below described assays the ability of the compounds to bind to RARα, RARβ, RARγ, RXRα, RXRβ and […]. receptors, and the ability or inability of the compounds to activate transcription of a reporter gene through these receptor subtypes can be tested. A holoreceptor transactivation assay and a ligand binding assay which measure the antagonist/agonist like activity of the compounds of the invention, or their ability to bind to the several retinoid receptor subtypes, respectively, are described in published PCT Application No. […] A description of the holoreceptor transactivation assay is also provided below. […] Cell 68, 397-406, (1992). For RXRα and RXRγ transactivation assays, an RXR-responsive reporter plasmid CRBPII-tk-LUC (50 ng) along with the appropriate RXR expression vectors (10 ng) was used substantially as described by Heyman et al. above, and Allegretto et al. J. Biol. Chem. 268, 26625-26633. […] These reporters contain DRI elements from human CRBPII and certain DRI elements from promoter, respectively. (see Mangelsdorf et al. The Retinoids: Biology, Chemistry and Medicine, pp 319-349, Raven Press Ltd., New York and Heyman et al., cited above) (1, 8). A β-galactosidase (50 ng) expression vector was used as an internal control in the transfections to normalize for variations in transfection efficiency. The cells were transfected in triplicate for 6 hours, followed by incubation with retinoids for 36 hours, and the extracts were assayed for luciferase and β-galactosidase activities. The detailed experimental procedure for holoreceptor transactivations has been described in Heyman et al. and Allegretto et al., cited above. The results obtained in this assay are expressed in EC50 numbers, as they are also in the chimeric receptor transactivation assay. The Heyman et al. Cell 68, 397-406, Allegretto et al. J. Biol. Chem. 268, 26625-26633, and Mangelsdorf et al. The Retinoids: Biology, Chemistry and Medicine, pp 319-349, Raven Press Ltd., New York, are expressly incorporated herein by reference. The results of ligand binding assay are expressed in Kd numbers.

| Structure (SMILES) | IC50 [1] [µM] | Kd [2] [µM] | Kd [3] [µM] | Kd [4] [µM] |
| --- | --- | --- | --- | --- |
| CCOC(=O)c1ccc(C#C/C=C/C2C(c3ccc(C)cc3)=CCCC2(C)C)cc1 (racemic) [Compound 10, Ethyl (±)-(E)-4-(4-(2-(4-Methylphenyl)-4,4-dimethylcyclohexen-3-yl)but-3-en-1-yn-1-yl)benzoate] | 0.001 | – | – | – |
| Cc1ccc(C2=CCCC(C)(C)C2/C=C/C#Cc2ccc(C(=O)O)cc2)cc1 (racemic) [Compound 14, (±)-(E)-4-(4-(2-(4-Methylphenyl)-4,4-dimethylcyclohexen-3-yl)but-3-en-1-yn-1-yl)benzoic acid] | – | 0.454 | 0.024 | 0.098 |
| Cc1ccc(C2=C(/C=C/C#Cc3ccc(C(=O)O)cc3)C(C)(C)CCC2)cc1 [Compound 13, (E)-4-(4-(1-(4-Methylphenyl)-3,3-dimethylcyclohexen-2-yl)but-3-en-1-yn-1-yl)benzoic Acid] | – | 0.148 | 0.006 | 0.021 |
| CCc1ccc(C2=C(/C=C/C#Cc3ccc(C(=O)O)cc3)C(C)(C)CCC2)cc1 [Compound 15, (E)-4-(4-(1-(4-Ethylphenyl)-3,3-dimethylcyclohexen-2-2l)but-3-en-1-yn-1-yl)benzoic acid] | – | 0.136 | 0.004 | 0.036 |
| CC1(C)CCCC(c2ccc(C(C)(C)C)cc2)=C1/C=C/C#Cc1ccc(C(=O)O)cc1 [Compound 16, (E)-4-(4-(1-(4-tert-butylphenyl)-3,3-dimethylcyclohexen-2-yl)but-3-en-1-yn-1-yl)benzoic acid] | – | 0.875 | 0.013 | 0.333 |
| Cc1ccc(C2=CCC(C)(C)C=C2/C=C/C#Cc2ccc(C(=O)O)cc2)cc1 [Compound 24, (E)-4-(4-(2-(4-Methylphenyl)-5,5-dimethyl-1,3-cyclohexadien-3-yl)but-3-ene-1-yn-1-yl)benzoic Acid] | – | 0.134 | 0.048 | 0.033 |

Reference: patent US5760276A, “Aryl-and heteroarylcyclohexenyl substituted alkenes having retinoid agonist, antagonist or inverse agonist type biological activity” (Allergan, priority 1997, dated 1998)
